Laboratory results published in PubChem BioAssay AID504820 (Southern Research Specialized Biocontainment Screening …, 2011).
pIC50: −log10 of the molar value. Where “and” joins values, the source holds several entries; their conditions need not be identical. Equal values may be shown once. Calls of active or inactive are those of the source. No rule for the calls is given here.

Tests used:
[1] = inhibition of RSV cytopathic effect in HEp-2, dose response, cell-based, synthesized compounds, set 8 (AID 504820); settings: HEp-2 cells, RSV cytopathic effect inhibition; at 50 µM (top of the series)
[2] = system: HEp-2 cells, RSV cytopathic effect inhibition; experiment: as above

| Structure (SMILES) | CPE inhibition [1] | pIC50 [2] |
| --- | --- | --- |
| Cc1ccc(NC(=O)CN(C)S(=O)(=O)c2cccc3cccnc23)c(C)c1 | 46% (inactive) |  |
| Cc1ccc(Cn2c(=O)n(Cc3ccc(C(=O)NC(C)(C)C)cc3)c(=O)c3ccccc32)cc1 |  | 5.90 |
| Cc1cc(C)cc(NC(=O)[C@@H]2CCCN2S(=O)(=O)c2cccc3cccnc23)c1 | 33.1% (inactive) |  |
| Cc1ccc(NC(=O)C2CCCN2S(=O)(=O)c2cccc3cc(C)cnc23)c(C)c1 (configuration not stated) | 11.1% (inactive) |  |
| COCCCNC(=O)c1ccc(Cn2c(=O)c3ccc(Br)cc3n(Cc3ccc(C)cc3)c2=O)cc1 | 1.9% (inactive) |  |
| COc1ccccc1CNC(=O)C1CCN(S(=O)(=O)c2cccc3nonc23)CC1 |  | 5.47 |
| CCc1ccccc1NC(=O)[C@@H]1CCCN1S(=O)(=O)c1cccc2cccnc12 |  | 4.68 |
| Cc1ccc(NC(=O)C(C)NS(=O)(=O)c2cccc3cccnc23)c(C)c1 (configuration not stated) | 4.35% (inactive) |  |
| Cc1ccc(NC(=O)[C@@H]2CCCN2S(=O)(=O)c2cccc3cccnc23)c(C)c1 |  | 5.52 |
| Cc1ccc(NC(=O)C2CCCN2S(=O)(=O)c2ccccc2)c(C)c1 (configuration not stated) | 1.19% (inactive) |  |
| Cc1ccc(Cl)c(NC(=O)[C@@H]2CCCN2S(=O)(=O)c2cccc3cccnc23)c1 | 8.49% (inactive) |  |
| Cc1ccc(NC(=O)C2CCCN2S(=O)(=O)c2ccc3ncccc3c2)c(C)c1 (configuration not stated) | 1.75% (inactive) |  |
| COCCCNC(=O)c1ccc(Cn2c(=O)c3ccccc3n(Cc3ccc4nonc4c3)c2=O)cc1 |  | 5.33 |
| Cc1ccc(C(F)(F)F)cc1NC(=O)[C@@H]1CCCN1S(=O)(=O)c1cccc2cccnc12 | 15% (inactive) |  |
| Cc1cccc(C)c1NC(=O)[C@@H]1CCCN1S(=O)(=O)c1cccc2cccnc12 | 44.1% (inactive) |  |
| O=C([C@@H]1CCCN1S(=O)(=O)c1cccc2cccnc12)N1CCOCC1 | 1.71% (inactive) |  |
| Cc1ccc(NC(=O)C2CCCN2S(=O)(=O)c2cccc3cccnc23)c(C)c1 (configuration not stated) |  | 4.90 |
| CC(C)(C)NC(=O)[C@@H]1CCCN1S(=O)(=O)c1cccc2cccnc12 | 1.38% (inactive) |  |
| COCCCNC(=O)c1ccc(Cn2c(=O)c3ccccc3n(C)c2=O)cc1 | 19.2% (inactive) |  |
| Cc1ccccc1NC(=O)[C@@H]1CCCN1S(=O)(=O)c1cccc2cccnc12 |  | 4.54 |
| Cc1ccc(NC(=O)[C@H]2CCCN2S(=O)(=O)c2cccc3cccnc23)c(C)c1 | 26.6% (inactive) |  |
| Cc1ccc(NC(=O)[C@@H]2CCCN2S(=O)(=O)c2cccc3cccnc23)c(C)n1 | 4.2% (inactive) |  |
| COCCCNC(=O)c1ccc(Cn2c(=O)c3ccccc3n(Cc3ccc(C)c(C(F)(F)F)c3)c2=O)cc1 |  | 5.82 |
| Cc1ccc(Cn2c(=O)n(Cc3ccc(C(=O)Nc4nccs4)cc3)c(=O)c3ccccc32)cc1 | 2.96% (inactive) |  |
| Cc1ccc(Cn2c(=O)n(Cc3ccc(C(=O)Nc4ccncc4)cc3)c(=O)c3ccccc32)cc1 |  | 5.58 |
| Cc1ccc(C(C)(C)C)cc1NC(=O)[C@@H]1CCCN1S(=O)(=O)c1cccc2cccnc12 | 2.81% (inactive) |  |

| Structure (SMILES) | CPE inhibition [1] | pIC50 [2] |
| --- | --- | --- |
| Cc1ccc(C)c(NC(=O)[C@@H]2CCCN2S(=O)(=O)c2cccc3cccnc23)c1 |  | 5.54 and 5.77 |
| Cc1ncccc1NC(=O)[C@@H]1CCCN1S(=O)(=O)c1cccc2cccnc12 | 3.67% (inactive) |  |
| Cc1ccc(NC(=O)[C@@H]2CCCN2S(=O)(=O)c2cccc3cccnc23)cc1 | 25.5% (inactive) |  |
| Cc1cccc(NC(=O)[C@@H]2CCCN2S(=O)(=O)c2cccc3cccnc23)c1C |  | 5.05 |
| Cc1ccc(NC(=O)C2CCCN2S(=O)(=O)c2cccc3ccccc23)c(C)c1 (configuration not stated) | 1.6% (inactive) |  |
| COCCCNC(=O)c1ccc(Cn2c(=O)c3ccccc3n(Cc3ccc(OC)cc3)c2=O)cc1 |  | 5.64 |
| COCCCNC(=O)c1ccc(Cn2c(=O)c3ccccc3n(Cc3cc(C)on3)c2=O)cc1 | 6.33% (inactive) |  |
| Cc1cccc(NC(=O)[C@@H]2CCCN2S(=O)(=O)c2cccc3cccnc23)c1 | 12.8% (inactive) |  |
| COc1ccc(C)cc1NC(=O)[C@@H]1CCCN1S(=O)(=O)c1cccc2cccnc12 | 4.82% (inactive) |  |
| COCCCNC(=O)c1ccc(Cn2c(=O)c3ccccc3n(Cc3ccc([N+](=O)[O-])cc3)c2=O)cc1 |  | 6.26 |
| Cc1ccc(NC(=O)C2CCCN2S(=O)(=O)c2cccc3cnccc23)c(C)c1 (configuration not stated) | 3.25% (inactive) |  |
| Cc1ccc(F)cc1NC(=O)[C@@H]1CCCN1S(=O)(=O)c1cccc2cccnc12 | 10.8% (inactive) |  |
| COCCCNC(=O)c1ccc(Cn2c(=O)c3ccccc3n(Cc3ccc(C(F)(F)F)cc3)c2=O)cc1 |  | 5.85 |
| Cc1ccc(C(C)C)cc1NC(=O)[C@@H]1CCCN1S(=O)(=O)c1cccc2cccnc12 | 7.9% (inactive) |  |
| O=C(Nc1ccccc1)[C@@H]1CCCN1S(=O)(=O)c1cccc2cccnc12 | 12.2% (inactive) |  |
| Cc1ccc(Cn2c(=O)n(Cc3ccc(C(=O)Nc4cc(C)nc5ccccc45)cc3)c(=O)c3ccccc32)cc1 | 2.83% (inactive) |  |
| O=C(Nc1ccc(Cl)cc1Cl)[C@@H]1CCCN1S(=O)(=O)c1cccc2cccnc12 | 2.1% (inactive) |  |
| CC(C)c1ccccc1NC(=O)[C@@H]1CCCN1S(=O)(=O)c1cccc2cccnc12 |  | 4.76 |
| Cc1ccc(NC(=O)CNS(=O)(=O)c2cccc3cccnc23)c(C)c1 | 4.34% (inactive) |  |
| Cc1ccc(Cl)cc1NC(=O)[C@@H]1CCCN1S(=O)(=O)c1cccc2cccnc12 |  | 5.60 |
| Cc1ccc(NC(=O)C2CCCN2S(C)(=O)=O)c(C)c1 (configuration not stated) | 2.52% (inactive) |  |
| Cc1cc(NC(=O)[C@@H]2CCCN2S(=O)(=O)c2cccc3cccnc23)n(C(C)(C)C)n1 | 33.2% (inactive) |  |
| COCCCNC(=O)c1ccc(Cn2c(=O)c3ccccc3n(Cc3ccc(Br)cc3)c2=O)cc1 |  | 5.94 |
| Cc1ccc(NC(=O)[C@@H]2CCCN2S(=O)(=O)c2cccc3nonc23)c(C)c1 | 6.16% (inactive) |  |
| CCCn1c(=O)n(Cc2ccc(C(=O)NCCCOC)cc2)c(=O)c2ccccc21 | 2.28% (inactive) |  |
| COc1ccc(C)c(NC(=O)[C@@H]2CCCN2S(=O)(=O)c2cccc3cccnc23)c1 |  | 5.32 |
